Test results taken from US20090005711A1, “Systems and methods for opening of the blood-brain barrier of a subject using ultrasound” (priority 2005, published 2009).

Assays:
[1] = tested on: left hippocampus (BBB opening and closure); experiment: 9.4 T MRI of gadolinium deposition after FUS with SonoVue in APP/PS1 and NTg mice (Example C); format: in vivo, mouse
From the text: In an example, transgenic mice expressing mutant human APPK670N,M671L protein (line Tg2576) and a line of mice expressing human mutant PS1M146V protein (line 8.9) were crossed to generate offspring: doubly transgenic APP/PS1 animals and wild-type NTg littermates A total of six mice (age: 12 months, mass: 26-37 g) were used: transgenic APP/PS1 (n=3) and NTg (m=3) mice.
The experimental timeline is depicted in FIG. 17. Each mouse 180 with intact skin and skull 182 was anesthetized using 1.25-2.50% isoflurane (SurgiVet, Smiths Medical PM, Inc., Wisconsin, USA) and placed prone with its head immobilized by a stereotaxic apparatus 184 (David Kopf Instruments, Tujunga, Calif.) that included a mouse head holder, ear bars, and a gas anesthesia mask (FIG. 16). […] A degassed water-filled container 186 sealed at the bottom with a thin, acoustically and optically transparent, Saran™ Wrap (Saran, SC Johnson, Racine, Wis., USA) was placed on top of the mouse head (FIG. 16). Ultrasound coupling gel 188 was also used to eliminate any remaining impedance mismatch.
FIG. 18(A) illustrates the frontal bone 200, sagittal suture 202, lambdoid suture 204, left parietal bone 206, right parietal bone 208, and intraparietal bone 210. […] The beam axis of the transducer was aligned 2.25 mm away from the sagittal suture 202 and 2 mm away from the lambdoid suture 204 (FIG. 18(A)). The focal point was placed 3 mm beneath the top of the parietal bone of the skull (dotted line in FIG. 18(A)). In this placement, the focus of the FUS beam overlapped with the left hippocampus 212 and the left posterior cerebral artery (PCA) (FIG. 18(A)-(B)). […] After the BBB opening, gadolinium was injected and monitored with MRI (FIG. 18(C). The horizontal slices shown in FIGS. 18(B)-(C) were obtained approximately 3 mm beneath the top of the skull. […]
A vertical bore 9.4-Tesla MR scanner (Bruker Medical, Boston, Mass., USA) was used to acquire images of mouse brains in two separate sessions. […] 1-2% isoflurane was administered while the respiration rate of the mouse was monitored throughout the entire MRI procedure. […]

[2] = tested on: left hippocampus of the mouse brain (BBB opening)
Method: Brown CB57-b16 type mice (Charles River Laboratories, Wilmington, Mass., USA; mass: 23 to 28 g) were used in sonication procedures. The mice were anesthetized with a mixture of ketamine (Fort Dodge Animal Health, Fort Dodge, Iowa, USA; concentration: 75 mg per kg of body mass) and xylazine (Ben Venue Laboratories, Bedford, Ohio, USA; concentration: 3.75 mg per kg of body mass). Before sonication, the hair on the top of the mouse heads was removed using an electric trimmer and a depilatory cream. After sonication, but before MRI scanning, the mice were switched to administration of isoflurane to simplify the long anesthesia procedure necessary for MRI scanning. During all imaging procedures, the vital signs of the mice were continuously monitored.
Ultrasound gel was used further to reduce any remaining impedance mismatches between the thin plastic layer 138 and the mouse skin.
The focus of the transducer 102 was positioned inside the mouse brain using a grid positioning method, as discussed above. In this method, the sutures of the mouse skull seen through the skin were used as anatomic landmarks for targeting purposes. The location of the hippocampi were assumed relative to the sutures based on the mouse brain and known skull anatomy, as illustrated in FIG. 4. […] In CB57-b16 type mice, these were the sutures that could be clearly seen through the skin.
Ultrasound contrast medium was administered for transport across the BBB. A bolus of 10 μL (approximately 0.4 mL/kg) of ultrasound contrast agent (Optison) that contained microbubbles (mean diameter: 3.0 to 4.5 μm: concentration: 5.0 to 8.0×108 bubbles per mL) was injected into the right femoral vein of the mouse approximately 15 minutes before sonication (Table 1). Pulsed-wave FUS (burst rate: 10 Hz; burst duration: 20 ms; duty cycle: 20%; acoustic pressures at the focus: 2.0, 2.5 and 2.7 MPa) was then applied in a series of five shots lasting 30 seconds each with a 30 second delay between each shot. The FUS sonication procedure was performed once in each mouse brain. […]

Area and degree of contrast enhancement, day 2 ([1]; 0.64 MPa, 25 μl SonoVue, scans 22 hours post-sonication, second gadolinium injection, compared with day 1): significantly reduced
Residual gadolinium in pre-gadolinium T1 and T2-weighted images ([1]; before the day 2 scan (22 hours post-sonication)): no residual gadolinium
Contrast enhancement on T1 MRI scans ([2]; in vivo, ip): no contrast enhancement was observed
Compound: [Gd] [gadolinium]
Contrast enhancement on MR images, day 1 ([1]; 0.64 MPa, 25 μl SonoVue, scans 90 min post-sonication, 90 min post-gadolinium injection (0.75 ml IP)): the entire left hippocampus and some of its surrounding regions were contrast-enhanced
Contrast enhancement / permeation on T1 MRI scans [2]: eventually encompassing the entire left hippocampus
Contrast enhancement / BBB opening on T1 MRI scans ([2]; in vivo, ip): highly localized opening of the BBB near the PCA
